Source: ChEMBL document CHEMBL1201862, “PubChem BioAssay data set” (2004)
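In this assay, cells in 96-well plates receive the compound at five concentrations for 48 hours. Endpoints are linearly interpolated between the surrounding concentrations. GI50 = concentration required for 50% inhibition of growth.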 Activity calls are given as the source filed them. No stated cut-off is given here; in the data, active = GI50 up to about 1.1 µM and inactive = higher.

Columns and labels:
Test in all cases: DTP human tumour cell line panel, 48 h
SF-268 = tested on: SF-268
HL-60 = tested on: HL-60
MCF7 = tested on: MCF7
HCT-15 = tested on: HCT-15
SK-MEL-2 = tested on: SK-MEL-2
U-251 = tested on: U-251
SN12C = tested on: SN12C
BT-549 = tested on: BT-549
COLO 205 = tested on: COLO 205
NCI-H23 = tested on: NCI-H23
HOP-92 = tested on: HOP-92
K562 = tested on: K562
NCI-H460 = tested on: NCI-H460
Hs-578T = tested on: Hs-578T
NCI/ADR-RES = tested on: NCI/ADR-RES
PC-3 = tested on: PC-3
HOP-62 = tested on: HOP-62
SK-MEL-28 = tested on: SK-MEL-28
OVCAR-4 = tested on: OVCAR-4
HCC 2998 = tested on: HCC 2998

SMILES	GI50 (SF-268)	GI50 (HL-60)	GI50 (MCF7)	GI50 (HCT-15)	GI50 (SK-MEL-2)	GI50 (U-251)	GI50 (SN12C)	GI50 (BT-549)	GI50 (COLO 205)	GI50 (NCI-H23)	GI50 (HOP-92)	GI50 (K562)	GI50 (NCI-H460)	GI50 (Hs-578T)	GI50 (NCI/ADR-RES)	GI50 (PC-3)	GI50 (HOP-62)	GI50 (SK-MEL-28)	GI50 (OVCAR-4)	GI50 (HCC 2998)
CN1B(c2ccccc2)N(C)C(=O)N(C)C1=O	> 100 µM (inactive)	> 100 µM (inactive)	> 100 µM (inactive)	> 100 µM	> 100 µM (inactive)	> 100 µM (inactive)	> 100 µM (inactive)	> 100 µM (inactive)	> 100 µM (inactive)	> 100 µM (inactive)	> 100 µM (inactive)	> 100 µM (inactive)	> 100 µM (inactive)	81.3 µM (inactive)	> 100 µM (inactive)	> 100 µM (inactive)	–	–	–	–
Cc1cc2ccc(OC(=O)c3ccc(NC(=N)N)cc3)cc2oc1=O	25.2 µM (inactive)	5.93 µM (inactive)	22.1 µM (inactive)	> 100 µM	25.4 µM (inactive)	21.6 µM (inactive)	23.6 µM (inactive)	26.3 µM (inactive)	23.7 µM (inactive)	21.3 µM (inactive)	41.6 µM (inactive)	25.6 µM (inactive)	31.4 µM (inactive)	25.9 µM (inactive)	> 100 µM (inactive)	28.6 µM (inactive)	18.7 µM (inactive)	24 µM (inactive)	16.6 µM (inactive)	–
CC(C)C(C/C=C1/CC(CO)(COC(=O)c2ccccc2)OC1=O)C(C)C (stereo unspecified)	16.8 µM (inactive)	–	19.6 µM (inactive)	20 µM	> 100 µM (inactive)	16.1 µM (inactive)	15.5 µM (inactive)	18.3 µM (inactive)	3.63 µM (inactive)	18.1 µM (inactive)	17.5 µM (inactive)	9.04 µM (inactive)	17 µM (inactive)	7.43 µM (inactive)	19.2 µM (inactive)	13.6 µM (inactive)	9.93 µM (inactive)	14.1 µM (inactive)	15 µM (inactive)	18.8 µM (inactive)
COC(=O)[C@H](Cc1ccccc1)NC(=O)c1ccc(CNC(=O)/C=C/c2cccc(Oc3ccccc3)c2)cc1	14.6 µM (inactive)	–	12.8 µM (inactive)	6.24 µM	10.3 µM (inactive)	18.3 µM (inactive)	26.1 µM (inactive)	> 100 µM (inactive)	21.3 µM (inactive)	36.7 µM (inactive)	5.31 µM (inactive)	7.08 µM (inactive)	24.9 µM (inactive)	10.4 µM (inactive)	31.3 µM (inactive)	29.4 µM (inactive)	77.3 µM (inactive)	9.33 µM (inactive)	34.4 µM (inactive)	35.4 µM (inactive)
Cc1ccc(OCC2OC(n3cnc4nc(Nc5ccc(Cl)c(Cl)c5)nc(Cl)c43)CC2Oc2ccc(C)cc2)cc1 (stereo unspecified)	> 100 µM (inactive)	–	> 100 µM (inactive)	> 100 µM	> 100 µM (inactive)	> 100 µM (inactive)	> 100 µM (inactive)	> 100 µM (inactive)	> 100 µM (inactive)	> 100 µM (inactive)	–	> 100 µM (inactive)	27.2 µM (inactive)	> 100 µM (inactive)	> 100 µM (inactive)	> 100 µM (inactive)	> 100 µM (inactive)	> 100 µM (inactive)	> 100 µM (inactive)	> 100 µM (inactive)
O=C(Cc1nc2ccc([N+](=O)[O-])cc2nc1O)C(=O)Nc1cc(Cl)c(Cl)cc1Cl	> 100 µM (inactive)	–	> 100 µM (inactive)	> 100 µM	> 100 µM (inactive)	> 100 µM (inactive)	> 100 µM (inactive)	> 100 µM (inactive)	> 100 µM (inactive)	> 100 µM (inactive)	> 100 µM (inactive)	–	> 100 µM (inactive)	> 100 µM (inactive)	> 100 µM (inactive)	> 100 µM (inactive)	> 100 µM (inactive)	> 100 µM (inactive)	> 100 µM (inactive)	> 100 µM (inactive)
CC(C)c1ccc(C(O)(C(=O)O)c2ccc(C(C)C)cc2)cc1	33.7 µM (inactive)	39.2 µM (inactive)	53.7 µM (inactive)	46.6 µM	–	18.2 µM (inactive)	46 µM (inactive)	91.6 µM (inactive)	> 100 µM (inactive)	42.1 µM (inactive)	31.8 µM (inactive)	42.5 µM (inactive)	47.2 µM (inactive)	26.3 µM (inactive)	73.5 µM (inactive)	31.6 µM (inactive)	28.3 µM (inactive)	64.9 µM (inactive)	42.6 µM (inactive)	–
O=C1N[C@H]2C(=O)c3c(Br)sc(Br)c3[C@H]2O1	4.1 µM (inactive)	–	10.7 µM (inactive)	1.95 µM	14.7 µM (inactive)	3.48 µM (inactive)	4.76 µM (inactive)	14.5 µM (inactive)	3.52 µM (inactive)	6.44 µM (inactive)	14.6 µM (inactive)	2.66 µM (inactive)	16.8 µM (inactive)	18.7 µM (inactive)	13.4 µM (inactive)	4.95 µM (inactive)	16.2 µM (inactive)	3.41 µM (inactive)	15.3 µM (inactive)	11.7 µM (inactive)
O=C(O)CCNc1ccccc1C(=O)O	> 100 µM (inactive)	> 100 µM (inactive)	> 100 µM (inactive)	> 100 µM	> 100 µM (inactive)	> 100 µM (inactive)	> 100 µM (inactive)	> 100 µM (inactive)	> 100 µM (inactive)	> 100 µM (inactive)	> 100 µM (inactive)	> 100 µM (inactive)	> 100 µM (inactive)	> 100 µM (inactive)	> 100 µM (inactive)	> 100 µM (inactive)	> 100 µM (inactive)	> 100 µM (inactive)	> 100 µM (inactive)	–
CCOP(=O)(OCC)C(N)c1ccc(Cl)cc1 (stereo unspecified)	> 100 µM (inactive)	> 100 µM (inactive)	> 100 µM (inactive)	> 100 µM	> 100 µM (inactive)	> 100 µM (inactive)	> 100 µM (inactive)	> 100 µM (inactive)	> 100 µM (inactive)	> 100 µM (inactive)	> 100 µM (inactive)	–	> 100 µM (inactive)	> 100 µM (inactive)	> 100 µM (inactive)	> 100 µM (inactive)	–	> 100 µM (inactive)	> 100 µM (inactive)	–
COC(OC)C1OC(CO)C(n2cc(C)c(=O)[nH]c2=O)C1O (stereo unspecified)	> 100 µM (inactive)	–	> 100 µM (inactive)	> 100 µM	> 100 µM (inactive)	> 100 µM (inactive)	> 100 µM (inactive)	> 100 µM (inactive)	> 100 µM (inactive)	> 100 µM (inactive)	> 100 µM (inactive)	> 100 µM (inactive)	> 100 µM (inactive)	> 100 µM (inactive)	> 100 µM (inactive)	> 100 µM (inactive)	> 100 µM (inactive)	> 100 µM (inactive)	> 100 µM (inactive)	> 100 µM (inactive)
